Assay results: PMC5762315, “Inhibition of polo-like kinase 4 (PLK4): a new therapeutic option for rhabdoid tumors and pediatric medulloblastoma” (Oncotarget, 2017)
“And” between values parts separate entries of the source, which are not always exact repeats. Equal entries are not always repeated.

Key:
TEK [1] = molecular target: TEK (Homo sapiens, UniProt Q02763, R849W); experiment: Kinase activity screening (SelectScreen), TEK; type: biochemical; settings: kinase TEK (TIE2) R849W; LanthaScreen Binding
Sequence of TEK (Homo sapiens, UniProt Q02763, R849W) (Q02763 771-1124 R849W): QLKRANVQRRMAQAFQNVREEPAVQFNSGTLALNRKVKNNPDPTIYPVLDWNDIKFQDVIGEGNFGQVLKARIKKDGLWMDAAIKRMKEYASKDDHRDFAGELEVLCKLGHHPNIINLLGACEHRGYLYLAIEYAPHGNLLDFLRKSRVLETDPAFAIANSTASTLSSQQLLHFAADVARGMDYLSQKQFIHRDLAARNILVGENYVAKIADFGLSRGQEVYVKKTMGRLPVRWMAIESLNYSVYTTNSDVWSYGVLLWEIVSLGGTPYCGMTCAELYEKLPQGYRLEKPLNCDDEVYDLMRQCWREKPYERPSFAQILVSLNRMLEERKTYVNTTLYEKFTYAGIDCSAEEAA

TEK [2] = molecular target: TEK (Homo sapiens, UniProt Q02763, Y1108F); experiment: Kinase activity screening (SelectScreen), TEK; type: biochemical
Sequence of TEK (Homo sapiens, UniProt Q02763, Y1108F) (Q02763 771-1124 Y1108F): as the sequence (Q02763 771-1124 R849W) above, with W79R, Y338F counted along it

TEK [3] = molecular target: TEK (Homo sapiens, UniProt Q02763, Y897S); experiment: Kinase activity screening (SelectScreen), TEK; type: biochemical; settings: kinase TEK (TIE2) Y897S; ZLYTE
Sequence of TEK (Homo sapiens, UniProt Q02763, Y897S) (Q02763 771-1124 Y897S): as the sequence (Q02763 771-1124 R849W) above, with W79R, Y127S counted along it

TEK [4] = experiment: Kinase activity screening (SelectScreen), TEK; type: biochemical; settings: kinase TEK (Tie2); ZLYTE
various kinases [5] = molecular target: various kinases (Homo sapiens, UniProt Q9HC98); experiment: biochemical; type: biochemical; settings: NEK6
Sequence of various kinases (Homo sapiens, UniProt Q9HC98) (Q9HC98 whole entry): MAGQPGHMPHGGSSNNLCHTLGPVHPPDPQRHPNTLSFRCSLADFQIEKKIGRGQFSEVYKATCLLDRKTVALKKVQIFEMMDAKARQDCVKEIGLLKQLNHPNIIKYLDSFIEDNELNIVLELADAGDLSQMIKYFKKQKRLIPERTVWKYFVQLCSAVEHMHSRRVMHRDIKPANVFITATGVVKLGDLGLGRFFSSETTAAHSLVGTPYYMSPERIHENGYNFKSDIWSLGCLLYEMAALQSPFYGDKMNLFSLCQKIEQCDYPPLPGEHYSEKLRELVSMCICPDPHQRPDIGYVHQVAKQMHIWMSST

various kinases [6] = molecular target: various kinases (Homo sapiens, UniProt O14986); experiment: Adapta Universal Kinase Assay, panel of 486 biochemical kinase assays; parameters: % Inhibition Average: concentration or dose not given beside the values; settings: kinase PIP5K1B; Adapta
Sequence of various kinases (Homo sapiens, UniProt O14986) (O14986 whole entry): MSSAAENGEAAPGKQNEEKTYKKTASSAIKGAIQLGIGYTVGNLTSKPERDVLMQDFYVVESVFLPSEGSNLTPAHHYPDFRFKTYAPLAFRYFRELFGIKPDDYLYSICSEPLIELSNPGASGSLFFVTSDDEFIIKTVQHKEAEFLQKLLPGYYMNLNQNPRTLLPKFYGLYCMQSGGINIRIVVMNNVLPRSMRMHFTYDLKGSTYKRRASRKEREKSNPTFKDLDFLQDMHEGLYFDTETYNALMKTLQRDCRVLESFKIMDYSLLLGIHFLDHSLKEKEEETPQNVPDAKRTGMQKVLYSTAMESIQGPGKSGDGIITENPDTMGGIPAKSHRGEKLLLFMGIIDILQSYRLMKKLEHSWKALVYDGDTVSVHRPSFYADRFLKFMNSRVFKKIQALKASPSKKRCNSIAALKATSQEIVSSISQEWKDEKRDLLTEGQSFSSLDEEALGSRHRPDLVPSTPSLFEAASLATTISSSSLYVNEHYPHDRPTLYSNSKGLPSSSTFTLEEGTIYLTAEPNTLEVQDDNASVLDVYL

various kinases [7] = molecular target: various kinases (Homo sapiens, UniProt P11802); experiment: as above; parameters: % Inhibition Average: concentration or dose not given beside the values
Sequence of various kinases (Homo sapiens, UniProt P11802) (P11802 whole entry): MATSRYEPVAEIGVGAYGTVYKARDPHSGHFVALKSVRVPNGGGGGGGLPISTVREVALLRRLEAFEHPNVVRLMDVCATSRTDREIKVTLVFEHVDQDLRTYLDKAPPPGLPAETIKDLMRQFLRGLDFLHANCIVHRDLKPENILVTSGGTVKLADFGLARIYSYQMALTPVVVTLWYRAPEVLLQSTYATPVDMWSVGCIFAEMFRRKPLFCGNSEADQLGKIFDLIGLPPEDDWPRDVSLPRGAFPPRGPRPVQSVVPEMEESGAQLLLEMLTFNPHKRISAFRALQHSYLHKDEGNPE

various kinases [8] = molecular target: various kinases (Homo sapiens, UniProt P42336, E542K); experiment: as above; parameters: % Inhibition Average: concentration or dose not given beside the values; settings: PIK3CA E542K/PIK3R1 (p110 alpha E542K/p85 alpha)
various kinases [9] = molecular target: various kinases (Homo sapiens, UniProt P50613); experiment: as above; parameters: % Inhibition Average: concentration or dose not given beside the values; settings: CDK7/cyclin H/MNAT1
various kinases [10] = molecular target: various kinases (Homo sapiens, UniProt Q5S007); experiment: as above; parameters: % Inhibition Average: concentration or dose not given beside the values
Sequence of various kinases (Homo sapiens, UniProt Q5S007) (Q5S007 whole entry): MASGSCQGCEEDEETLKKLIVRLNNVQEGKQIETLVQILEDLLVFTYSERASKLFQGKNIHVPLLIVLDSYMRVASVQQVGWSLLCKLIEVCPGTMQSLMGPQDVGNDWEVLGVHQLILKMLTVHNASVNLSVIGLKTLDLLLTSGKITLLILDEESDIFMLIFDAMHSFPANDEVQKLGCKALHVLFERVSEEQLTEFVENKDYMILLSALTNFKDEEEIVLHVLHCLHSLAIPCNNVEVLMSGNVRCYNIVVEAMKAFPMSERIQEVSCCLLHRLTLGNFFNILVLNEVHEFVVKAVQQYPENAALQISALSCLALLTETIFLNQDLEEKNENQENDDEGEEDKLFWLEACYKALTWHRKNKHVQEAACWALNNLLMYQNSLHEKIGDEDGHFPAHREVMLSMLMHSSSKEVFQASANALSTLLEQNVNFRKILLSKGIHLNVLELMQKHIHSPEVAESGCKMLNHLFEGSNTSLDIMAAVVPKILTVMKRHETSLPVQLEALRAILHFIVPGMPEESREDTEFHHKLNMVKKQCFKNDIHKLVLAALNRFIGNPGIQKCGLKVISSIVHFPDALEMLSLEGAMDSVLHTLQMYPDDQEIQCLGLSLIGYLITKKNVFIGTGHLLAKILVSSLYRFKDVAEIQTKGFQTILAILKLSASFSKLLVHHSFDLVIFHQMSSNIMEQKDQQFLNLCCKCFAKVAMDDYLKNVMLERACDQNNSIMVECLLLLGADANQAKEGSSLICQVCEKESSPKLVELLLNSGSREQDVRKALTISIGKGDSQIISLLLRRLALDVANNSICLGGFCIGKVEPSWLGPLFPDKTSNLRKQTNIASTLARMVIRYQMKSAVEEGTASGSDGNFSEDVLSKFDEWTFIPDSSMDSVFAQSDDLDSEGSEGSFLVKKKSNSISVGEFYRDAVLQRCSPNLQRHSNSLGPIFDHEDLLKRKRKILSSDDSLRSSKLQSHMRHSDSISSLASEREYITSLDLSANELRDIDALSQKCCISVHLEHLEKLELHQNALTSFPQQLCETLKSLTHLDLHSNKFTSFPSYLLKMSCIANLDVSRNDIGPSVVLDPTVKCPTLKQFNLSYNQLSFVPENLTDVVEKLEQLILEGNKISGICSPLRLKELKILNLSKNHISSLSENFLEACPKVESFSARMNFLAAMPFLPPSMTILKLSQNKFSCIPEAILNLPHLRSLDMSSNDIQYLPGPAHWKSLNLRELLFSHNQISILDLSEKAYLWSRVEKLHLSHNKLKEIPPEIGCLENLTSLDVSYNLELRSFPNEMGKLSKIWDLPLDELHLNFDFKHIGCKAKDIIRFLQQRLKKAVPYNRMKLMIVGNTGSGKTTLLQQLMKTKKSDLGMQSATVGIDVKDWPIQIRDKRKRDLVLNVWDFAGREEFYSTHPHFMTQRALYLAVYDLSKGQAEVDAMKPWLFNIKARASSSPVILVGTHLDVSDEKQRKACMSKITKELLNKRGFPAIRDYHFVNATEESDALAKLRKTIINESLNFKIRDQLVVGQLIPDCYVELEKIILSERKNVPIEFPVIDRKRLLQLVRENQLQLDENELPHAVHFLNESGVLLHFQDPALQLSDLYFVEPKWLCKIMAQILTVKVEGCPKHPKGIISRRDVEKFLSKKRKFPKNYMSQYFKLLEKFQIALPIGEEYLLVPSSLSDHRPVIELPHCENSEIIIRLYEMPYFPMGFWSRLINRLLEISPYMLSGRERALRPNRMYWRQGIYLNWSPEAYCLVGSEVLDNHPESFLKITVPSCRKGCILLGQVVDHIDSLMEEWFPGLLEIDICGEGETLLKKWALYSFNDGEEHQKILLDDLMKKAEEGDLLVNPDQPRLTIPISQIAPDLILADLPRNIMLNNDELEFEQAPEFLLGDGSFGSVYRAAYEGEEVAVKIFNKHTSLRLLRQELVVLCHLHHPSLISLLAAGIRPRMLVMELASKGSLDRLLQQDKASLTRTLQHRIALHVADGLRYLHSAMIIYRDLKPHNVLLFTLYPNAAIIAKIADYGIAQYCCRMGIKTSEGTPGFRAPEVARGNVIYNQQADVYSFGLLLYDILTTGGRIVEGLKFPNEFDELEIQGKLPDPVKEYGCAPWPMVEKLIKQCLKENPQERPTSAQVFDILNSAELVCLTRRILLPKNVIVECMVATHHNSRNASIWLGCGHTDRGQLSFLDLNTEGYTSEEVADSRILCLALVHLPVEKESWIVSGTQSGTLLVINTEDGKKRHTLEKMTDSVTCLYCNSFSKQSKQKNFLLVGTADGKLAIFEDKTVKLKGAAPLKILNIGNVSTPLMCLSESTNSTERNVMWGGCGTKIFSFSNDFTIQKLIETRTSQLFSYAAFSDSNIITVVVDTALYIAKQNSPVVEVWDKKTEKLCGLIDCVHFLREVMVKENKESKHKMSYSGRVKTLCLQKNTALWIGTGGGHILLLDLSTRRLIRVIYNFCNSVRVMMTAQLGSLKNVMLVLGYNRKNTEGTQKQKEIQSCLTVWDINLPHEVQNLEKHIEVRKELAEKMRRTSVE

various kinases [11] = molecular target: various kinases (Homo sapiens, UniProt Q5S007, G2019S); experiment: as above; parameters: % Inhibition Average: concentration or dose not given beside the values
Sequence of various kinases (Homo sapiens, UniProt Q5S007, G2019S) (Q5S007 whole entry G2019S): as the sequence (Q5S007 whole entry) above, with G2019S counted along it

various kinases [12] = molecular target: various kinases (Homo sapiens, UniProt Q8TF76); experiment: as above; parameters: % Inhibition Average: concentration or dose not given beside the values; settings: GSG2 (Haspin)
Sequence of various kinases (Homo sapiens, UniProt Q8TF76) (Q8TF76 whole entry): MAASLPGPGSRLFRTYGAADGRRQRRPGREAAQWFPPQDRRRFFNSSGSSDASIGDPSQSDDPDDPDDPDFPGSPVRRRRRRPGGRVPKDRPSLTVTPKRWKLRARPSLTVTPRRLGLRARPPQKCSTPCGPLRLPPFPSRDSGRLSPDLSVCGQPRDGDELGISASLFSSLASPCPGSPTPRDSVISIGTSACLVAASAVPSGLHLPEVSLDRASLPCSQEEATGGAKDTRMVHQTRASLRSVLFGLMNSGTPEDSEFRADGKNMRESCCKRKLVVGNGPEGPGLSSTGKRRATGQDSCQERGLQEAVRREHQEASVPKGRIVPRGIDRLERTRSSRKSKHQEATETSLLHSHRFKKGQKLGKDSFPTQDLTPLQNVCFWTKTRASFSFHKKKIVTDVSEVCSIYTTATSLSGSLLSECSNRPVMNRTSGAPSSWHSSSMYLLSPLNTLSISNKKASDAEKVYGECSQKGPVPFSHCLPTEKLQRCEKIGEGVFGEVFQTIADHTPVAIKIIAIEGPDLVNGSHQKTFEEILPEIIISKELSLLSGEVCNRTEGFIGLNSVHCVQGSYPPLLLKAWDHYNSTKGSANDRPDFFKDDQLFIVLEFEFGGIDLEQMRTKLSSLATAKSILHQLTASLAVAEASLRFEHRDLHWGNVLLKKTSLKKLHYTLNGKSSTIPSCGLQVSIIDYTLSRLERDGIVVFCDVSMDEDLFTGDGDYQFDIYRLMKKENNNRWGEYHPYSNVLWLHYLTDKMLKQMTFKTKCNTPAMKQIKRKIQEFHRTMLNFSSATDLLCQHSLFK

various kinases [13] = molecular target: T1, various kinases (Homo sapiens, UniProt Q9NRA0); experiment: as above; parameters: % Inhibition Average: concentration or dose not given beside the values; settings: kinase SPHK2; Adapta
T1 sequence (Q9NRA0 1-654): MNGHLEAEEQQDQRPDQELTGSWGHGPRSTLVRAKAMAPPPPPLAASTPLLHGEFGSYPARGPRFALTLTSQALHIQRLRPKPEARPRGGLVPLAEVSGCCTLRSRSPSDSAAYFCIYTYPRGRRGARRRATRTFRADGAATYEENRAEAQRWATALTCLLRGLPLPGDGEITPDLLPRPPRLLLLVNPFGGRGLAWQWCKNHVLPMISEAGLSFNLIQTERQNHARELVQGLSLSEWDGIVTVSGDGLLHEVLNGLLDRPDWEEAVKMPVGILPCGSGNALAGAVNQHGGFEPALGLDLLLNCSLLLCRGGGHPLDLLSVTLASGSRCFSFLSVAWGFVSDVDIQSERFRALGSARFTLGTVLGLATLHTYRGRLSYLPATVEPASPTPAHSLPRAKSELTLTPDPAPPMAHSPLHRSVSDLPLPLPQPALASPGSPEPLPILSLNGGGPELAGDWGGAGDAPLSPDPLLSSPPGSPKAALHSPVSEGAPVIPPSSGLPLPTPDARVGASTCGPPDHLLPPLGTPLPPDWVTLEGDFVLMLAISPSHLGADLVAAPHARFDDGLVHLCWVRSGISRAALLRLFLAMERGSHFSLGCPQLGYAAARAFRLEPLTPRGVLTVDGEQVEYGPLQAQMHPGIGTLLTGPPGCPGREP

DAOY cells [14] = experiment: Viability assay (Presto Blue), DAOY; type: cell-based; settings: Homo sapiens, dose-response 1nM to 10μM
DAOY cells [15] = experiment: Colony formation assay, DAOY; type: cell-based, human; settings: 50nM
Procedure: For proliferation assay DAOY was plated with 5 x 10^4 cells per well and D283 was plated with 5 x 10^5 cells per well.

[16] = system: PLK4 mRNA expression in MON rhabdoid cells; experiment: qRT-PCR for PLK4 transcript in treated MON cells; type: cell-based, human; settings: 10, 50, 100 and 500nM for 24, 48 and 72 hours
Procedure: The expression of PLK4 (Hs00179514_m1) in each cell line was verified by TaqMan GE assays (Thermo Fisher Scientific, USA) using the housekeeping gene GAPDH (Hs02758991_g1) as reference. Total RNA (2μg) was used to make cDNA using the Applied Biosystems High Capacity RNA-to-cDNA kit (Thermo Fisher Scientific). Reactions were performed in triplicate with adequate positive and negative controls. The normalized expression levels were calculated by the ΔΔCt method using the housekeeping gene and a pool of all samples as calibrator.

[17] = system: G401, BT-16, DAOY and D283 cell lines; experiment: Flow cytometry cell cycle analysis (polyploidy), other RT and MB lines; type: cell-based, human; settings: 100nM for 48 hours
Procedure: (§1) Cell cycle evaluation was performed by staining the cells with PI (Thermo Fisher Scientific, USA) according to manufacturer’s instructions. […] Data was analyzed using Modfit LT from Verity Software House. Experiments were performed in triplicates.

[18] = system: non-neoplastic human fibroblast cell line HFF-SCC058; experiment: Flow cytometry cell cycle analysis (polyploidy), fibroblasts; type: cell-based; settings: 100nM
Procedure: as §1

[19] = Brain to plasma ratio (B:P), LC-MS/MS; type: in vivo, male CD-1 mice; settings: male, CD-1, mouse, po, 7.5 mg/kg, 4 hours post-dose
Procedure: Male CD-1 mice weighing between 20 and 40 grams were fitted with jugular vein cannulas as appropriate and fasted overnight until 4 hours post-dose. Double route of administration (oral and IV) were tested, with a single dose concentration of 7.5mg/kg. Plasma and brain were sampled at 6 time-points, starting at 30 minutes (n=3 animals/time-point). Brain was extracted at the same plasma sampling time-point from each animal. Both plasma and brain samples were deproteinated. Brain samples were weighted, homogenized and CFI-400945 was extracted. […] The dosing solution was normalized in a matched matrix (mouse plasma) and analyzed in triplicate in the same analytical batch as the incurred samples (Absorption Systems - Exton, PA).

hERG K+ channel = hERG K+ channel (Homo sapiens, UniProt Q12809); experiment: biochemical

COc1ccc2c(c1)[C@]1(C[C@H]1c1ccc3c(/C=C/c4ccc(CN5C[C@@H](C)O[C@@H](C)C5)cc4)n[nH]c3c1)C(=O)N2 [CFI-400945]
% Inhibition Duplicate #2 (TEK [1]): 87% | IC50 (TEK [2]): 109 nM | % Inhibition Average (TEK [3]): 31% | % Inhibition Duplicate #1 (TEK [3]): 29% | % Inhibition Duplicate #2 (TEK [3]): 32% | % Inhibition Duplicate #2 (TEK [4]): 55% | % Inhibition (various kinases [5]): 8% and 13% | % Inhibition Average (various kinases [6]): -1% | % Inhibition Duplicate #1 (various kinases [6]): 2% | % Inhibition Duplicate #2 (various kinases [6]): -3% | % Inhibition (various kinases [7]; CDK4/cyclin D1): 10% and 9% | % Inhibition (various kinases [7]; CDK4/cyclin D3): 5% and 8% | % Inhibition (various kinases [8]): 6% and 9% | % Inhibition (various kinases [9]): -11% and -6% | % Inhibition (various kinases [10]; LRRK2): 34% and 26% | % Inhibition (various kinases [10]; LRRK2 FL): 43% and 42% | % Inhibition (various kinases [11]; LRRK2 G2019S): 54% and 55% | % Inhibition (various kinases [11]; LRRK2 G2019S FL): 54% and 50% | % Inhibition (various kinases [12]): -7% and 3% | % Inhibition Average (various kinases [13]): -20% | % Inhibition Duplicate #1 (various kinases [13]): -15% | % Inhibition Duplicate #2 (various kinases [13]): -24% | IC50 (DAOY cells [14]): 94 nM | colony formation (DAOY cells [15]): Complete inhibition | PLK4 expression (qPCR) vs control [16]: time dependent decrease | polyploidy (cell cycle analysis) [17]: extreme polyploidy | polyploidy (cell cycle analysis) [18]: No effect | Kp at 4 h ([19]; brain / plasma, fasted male CD-1 mice, triplicates, read-out: Average Raw B:P Ratio): ~0.08 | concentration at 4 h ([19]; plasma, plasma density assumed 1 g/mL, individual mice #355, 356, 357, read-out: Plasma Conc.): 498 ng/g | IC50 (hERG K+ channel): > 500 nM
